Key:
P38 pathway = test: Western blot for activation of p38 pathway in rat aortic rings; conditions: 2.7 μM CFZ 1.5 hours, with or without indomethacin plus LNAME (FIG. 7)
Experimental: Aortas were isolated from 8-10 week old CD® (Sprague Dawley) rats (from Charles River Laboratories) in an ice-cold, oxygenated (95% O2, 5% CO2) Krebs-Henseleit buffer. The aortas were then carefully cleaned to remove perivascular fat and cut into 2-mm rings that were mounted between two stainless steel wires in the myograph chamber containing 8 mL of Krebs-Henseleit buffer in 95% O2 and 5% CO2 at 37° C. Rings were stretch until a final stretch of 10 mN (Newton) was reached and incubated for 30 mins for equilibration. The rings were constricted with 8 mL of 80 mM KPSS for 15 minutes, followed by 3 washes with the Krebs-Henseleit buffer until the force returned to the baseline stretch. The aorta were then treated for one of the following experiments: • For protein expression studies the aortic rings were pre-treated with 100 μM N(gamma)-nitro-L-arginine methyl ester (L-NAME; Sigma-Aldrich) and 10 μM indomethacin for 10 minutes prior to the pre-incubation with CFZ (Amgen Inc.) for 1.5 hours. The rings were then isolated for protein expression analysis. […]

eNOS = test: Western blot of phosphorylated eNOS and eNOS in mouse endothelial cells; format: cell-based; conditions: different concentrations of CFZ (FIG. 3A)
Experimental: Protein levels of eNOS were unable to be assessed in rat endothelial cells; therefore, endothelial cells from mice were used. Mouse coronary endothelial cells (Cell Biologics) at passage 7 were seeded at 50,000 cells per well with 200 μL of endothelial cell media (Cell Biologics) in 96-well plates for 24 hours at 37° C. in 5% CO2. Some cells were pretreated with 100 μM L-NAME for 1 hour before adding 10 μM ACh. Cells were further treated with 0.3, 0.9, or 2.7 μM of CFZ or its vehicle for an additional 48 hours. The supernatant was collected and the amount of NO was assessed following the manufacturer's protocol for the colorimetric Nitric Oxide Assay Kit (Abcam, Cambridge, MA).
Each cell pellet was lysed in 50 to 70 μL RIPA buffer (Cell Signaling Technology, Danvers, MA) with the Halt™ protease and phosphatase inhibitor cocktail (Thermo Fisher Scientific). Lysates were quantitated and loaded onto the Li-COR Western blot system. Antibodies specific to phosphorylated eNOS and eNOS from Thermo Fisher Scientific, anti-Guanylyl Cyclase β1 (ER-19) (Sigma-Aldrich), and β-Actin (Sigma-Aldrich) were diluted 1:1000 for Western blot. Antibodies specific to p-VASP, VASP, and GADPH-HRP were purchased from Cell Signaling Technology.

rat aortic rings = test: Sodium nitroprusside-induced relaxation of phenylephrine-precontracted rat aortic rings
Experimental: An isometric myograph (DMT 620M) was used for ex vivo measurement of vascular function. Eight-to 10-week old Sprague Dawley rats (purchased from Charles River Laboratories, Wilmington, MA) were first anesthetized with 3% isoflurane and then euthanized using inhaled desflurane. The aortas were isolated in an ice-cold, oxygenated (95% O2, 5% CO2) Krebs-Henseleit buffer (118.3 mM NaCl, 4.7 mM KCl, 1.2 mM MgSO4, 1.2 mM KH2PO4, 2.5 mM CaCl2, 25 mM NaHCO3, and 11.0 mM glucose; purchased from Sigma-Aldrich, St. Louis, MO). The thoracic aorta was carefully cleaned to remove perivascular fat and cut into 2-mm rings that were mounted between two stainless steel wires in the myograph chamber containing 8 mL of Krebs-Henseleit buffer in 95% O2 and 5% CO2 at 37° C. First, the rings were equilibrated in the chamber for 20 minutes, followed by a gradual increase of mechanical stretch until a final stretch of 10 mN (Newton) was reached. After an additional incubation with fresh buffer for 30 minutes, the rings were constricted with 8 mL of 80 mM KPSS (43 mM NaCl, 80 mM KCl, 2.5 mM CaCl2, 1.2 mM MgSO4, 1.2 mM KH2PO4, 25.0 mM NaHCO3, and 11.0 mM glucose) for 15 to 20 minutes, followed by 3 washes with the Krebs-Henseleit buffer until the force returned to the baseline stretch. The tension of the aortic rings was continuously measured with the Lab Chart 7 data acquisition system (ADInstruments, Colorado Springs, CO). In Some of the experiments the aortic rings were pre-treated with 100 μM N(gamma)-nitro-L-arginine methyl ester (L-NAME; Sigma-Aldrich) and 10 μM indomethacin for 10 minutes prior to the pre-incubation with CFZ (Amgen Inc.) for 2 hours. After an additional incubation with fresh buffer for 30 minutes, the rings were constricted with 8 mL of 80 mM KPSS (43 mM NaCl, 80 mM KCl, 2.5 mM CaCl2, 1.2 mM MgSO4, 1.2 mM KH2PO4, 25.0 mM NaHCO3, and 11.0 mM glucose) for 15 to 20 minutes, followed by 3 washes with the Krebs-Henseleit buffer until the force returned to the baseline stretch. The tension of the aortic rings was continuously measured with the Lab Chart 7 data acquisition system (ADInstruments, Colorado Springs, CO).
For assessment of the effect of CFZ on vascular relaxation, the pre-treated aortic rings were incubated with 1 μM PE for 20 minutes to induce contraction. For experiments involving sildenafil and tadalafil, a 10-minute pre-treatment with 30 nM of these smooth muscle relaxants was done prior to the incubation with CFZ. After reaching a stable contraction, ACh, sodium nitroprusside (SNP), nifedipine, riociguat, or cinaciguat was added to the chamber at an increasing concentration from 100 pM to 10 μM; each stepwise concentration increase was added after the response to the current concentration reached a plateau. The relaxation was continuously measured and plotted as percent relaxation normalized to the response with 1 μM PE.

- EC50 for SNP-induced relaxation, CFZ alone (rat aortic rings; FIG. 5A experiment, vehicle alone 7.2×10^−9): 1.7×10^−8
- EC50 for SNP-induced relaxation in the presence of L-NAME and indomethacin (rat aortic rings; in the presence of CFZ 2.7 μM, vehicle alone 1.8×10^−8): 4.3×10^−8
SMILES: CC(C)C[C@H](NC(=O)[C@H](CCc1ccccc1)NC(=O)CN1CCOCC1)C(=O)N[C@@H](Cc1ccccc1)C(=O)N[C@@H](CC(C)C)C(=O)[C@@]1(C)CO1 [CFZ, carfilzomib]
- activation of p38 pathway (P38 pathway): caused activation of P38 pathway with or without endothelium dependent relaxing factors
- level of phosphorylated eNOS (eNOS): increasing level of phosphorylated eNOS corresponded to the increasing CFZ concentration
- protein expression level of total eNOS (eNOS): remained the same
- effect on SNP-induced relaxation (rat aortic rings; rings pretreated with CFZ, increasing SNP (FIG. 2B)): appeared to interfere with SNP-induced relaxation

Source: patent US20260144798A1, “Disruption of Vascular Smooth Muscle Relaxation by Carfilzomib May be the Primary Reason for CFZ-Induced Vascular Dysfunction” (AMGEN INC., priority 2019, published 2026)
